Results reported in patent US20260276656A1, “GUT MICROBIOTA-RELATED METHODS FOR TREATING DEMENTIA AND AGE-DEPENDENT COGNITIVE DECLINE” (Albert-Ludwigs-Universitat Freiburg, priority 2019, published 2026).

Experiments:
Format in all cases: in vivo, mouse
[1] = system: C57BL/6J mice; test: Novel object recognition (NOR) test (recognition memory); settings: old mice and old mice subjected to FMT from young donors; PLX5622 chow versus respective control mice; FIG. 15C-D
Description: (§1) In order to acutely deplete the gut microbiota, 15-16 months old SPF males were treated via oral gavage with a mixture of antibiotics (ABX), containing Cefoxitin (Santa Cruz Biotechnology), Gentamicin (Sigma-Aldrich) Metronidazole (Sigma-Aldrich), and Vancomycin (Hikma-pharma), each 10 mg/kg in sterile 1×PBS, for three consecutive days. On the fourth day, the mice were treated with one dose of Clindamycin hydrochloride (33.3 mg/kg) (Sigma-Aldrich). Fecal microbiota transplantations (FMTs) were started 24 h later. To deplete csf1-dependent cells in vivo, including microglia, mice were provided with CSF1R-inhibitor PLX5622 (Plexxicon Inc.) mixed into AIN-76A standard chow at 1200 mg/kg (Research Diets Inc.) ad libitum. Respective controls received AIN-76A standard chow. Mice were injected with 5 mg/kg δ-valerobetaine (MCAT, Germany) 1 h before behavioral testing.
(§2) For microbiota depletion studies, SPF mice were treated with 1 mg/ml of ampicillin (Auromedics), neomycin sulfate (Fisher), streptomycin (Sigma) and 0.5 mg/ml of vancomycin (Sagent) in the drinking water for 4-5 weeks (Khosravi et al., 2014). These mice were recolonized via FMT, which was achieved by oral gavage of a faecal slurry. Recipient mice had the food removed from the cage for 2 h prior to FMT. The faecal slurry was obtained by pooling faecal pellets from 8-14 donor mice. The pellets were weighed and resuspended by vortexing for 1 min in 1 mL PBS per 300 mg of faeces. After pelleting larger particles by centrifugation at 500×g for 5 min, the supernatant was collected for FMT. Each recipient mouse received 150 μl of faecal slurry by oral gavage. The remaining slurry was stored at −80° C. for 16S rRNA sequencing. Following FMT, the cages of recipient mice were replenished with dirty bedding and fresh faecal pellets from donor mice once and twice a week, respectively. Faecal pellets for 16S rRNA sequencing were collected the day before FMT and at the end of the experiment and were stored at −80° C. for DNA extraction. For re-colonization of ABX treated mice, FMTs from 8 weeks old or 15-16 months old males were undergone. Fresh fecal pellets are collected under a sterile hood and directly thoroughly homogenized in 0.1% L-Cysteine hydrochloride monohydrate in 1×PBS in order to maintain anaerobic microbes. The homogenates were spun down for 1 min, 200 g at 4° C. and the turbid supernatant was used to orally and rectally gavage the recipient mice. The FMT was performed twice 72 h apart.
(§3) NNN-trimethyl-5-aminovalerate was dissolved in 0.9% NaCl and administered i.p. at a dose of 200 mg/kg in a volume of 10 ml/kg. As control the vehicle NaCl was injected.
(§4) Mice were tested 40 min after drug- or vehicle injection or 4 weeks after FMT. We first performed the training run for the Novel-object recognition test, followed by the T maze test and then 6 h after the training session mice were tested in the Novel object recognition test. Spatial working memory was tested using the continuous spontaneous alternation task in a T-maze as described previously (Spowart-Manning, L. et al). Briefly, animals were set into the base of a T-maze and allowed to explore a randomly assigned T-maze arm until it returned to the base arm. Subsequently, the blocked arm was opened, and the animal was allowed to explore the complete maze. Once one arm of the T-maze was entered, the other arm was blocked until the animal returned to the base arm. Then, the exit of the base arm was blocked for 5 s and the animal was allowed to explore the maze again. The experiment was stopped after 14 free choice arm entries. Arm entries were scored as alternations if an animal chose the opposing arm compared to the arm visited immediately prior to the scored instance. The Novel Object Recognition (NOR) task was applied to evaluate recognition memory as published previously (Antunes, M. & Biala, G. et al). During the habituation phase, each mouse was allowed to explore two similar objects within a total exploration time of 20 s. […]

[2] = system: C57BL/6J mice; test: T-maze spontaneous alternation test (spatial working memory); settings: old mice and old mice subjected to FMT from young donors; PLX5622 chow versus respective control mice; FIG. 15B
Description: as §1, §2, §3, §4

[3] = system: microglia; test: Microglia depletion verified by Iba-1 immunohistochemistry; settings: 1200 mg/kg in AIN-76A chow ad libitum; cortex and hippocampus; FIG. 15E-F
Description: as §1
Mice were lethally anesthetized with ketamine (100 mg/kg bodyweight) and xylazine (10 mg/kg body weight) followed by perfusion with 1×PBS through the left heart chamber. For histology, the brains were kept overnight in 4% PFA. The brains were then dehydrated in 30% sucrose and embedded in Tissue-Tek O.C.T.™ compound (Sakura Finetek Germany GmbH). […] Fluorescence imaging was performed with BZ-9000 Biorevo microscope (Keyence). Iba-1+DAPI+ cells were quantified using ImageJ (v. 1.53c).

COc1ncc(F)cc1CNc1ccc(Cc2c[nH]c3ncc(C)cc23)c(F)n1 [PLX5622, reference compound]
NOR performance of mice lacking microglia [1]: unchanged
T maze performance of mice lacking microglia [2]: unchanged
microglia in brain tissue (Iba-1 immunohistochemistry) [3]: almost complete absence
